Patent US7887784B2, “1-[(2′-substituted)-piperazin-1′ -yl]-isoquinolines as norepinephrine transporter inhibitor therapeutics and positron emission tomography imaging agents” (University of Montana, priority 2007, dated 2011)

How the values were obtained:
[1] = biological target: T1, 5-HT1A (Homo sapiens, UniProt P08908); assay: 5-HT1A receptor competitive binding, [3H]8-OH-DPAT; conditions: partially purified human protein expressed in CHO cells, nonspecific 5-HT, 30° C., 0.5 h, read-out: Ki of (±)-14, 5-HT1A
T1 sequence (P08908 1-422): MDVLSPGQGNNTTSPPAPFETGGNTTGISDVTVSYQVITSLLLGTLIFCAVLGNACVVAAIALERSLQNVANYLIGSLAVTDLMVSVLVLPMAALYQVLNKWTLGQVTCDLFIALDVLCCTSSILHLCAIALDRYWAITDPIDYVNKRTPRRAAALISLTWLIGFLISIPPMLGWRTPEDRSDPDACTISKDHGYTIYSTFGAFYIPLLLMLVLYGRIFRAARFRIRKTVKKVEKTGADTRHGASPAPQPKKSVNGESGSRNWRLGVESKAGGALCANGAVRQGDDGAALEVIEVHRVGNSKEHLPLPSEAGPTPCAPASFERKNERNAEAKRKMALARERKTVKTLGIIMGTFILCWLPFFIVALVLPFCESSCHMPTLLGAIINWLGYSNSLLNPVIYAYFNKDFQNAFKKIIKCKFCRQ
Text: (§1) The evaluation of the competitive binding affinities (Ki values) of (±)-14 for the serotonin and dopamine transporter proteins (SERT and DAT, respectively), the beta-adrenergic receptor, and also serotonin 1a and 2a receptors has been made. The competitive binding profiles of (±)-14 at these other CNS sites are summarized in Table 2, where the assay conditions are defined. […] Thus, compound (±)-14 is considered to have potent NET selectivity (Table 1, Example X) relative to the potencies at the other sites as defined per Table 2.

[2] = biological target: DAT (Rattus norvegicus, UniProt P23977); assay: DAT competitive binding, [3H]B-CFT; conditions: partially purified rat protein, nonspecific GBR-12,909, 0° C., 2 h, read-out: Ki of (±)-14, DAT
Chain of DAT (P23977 whole entry): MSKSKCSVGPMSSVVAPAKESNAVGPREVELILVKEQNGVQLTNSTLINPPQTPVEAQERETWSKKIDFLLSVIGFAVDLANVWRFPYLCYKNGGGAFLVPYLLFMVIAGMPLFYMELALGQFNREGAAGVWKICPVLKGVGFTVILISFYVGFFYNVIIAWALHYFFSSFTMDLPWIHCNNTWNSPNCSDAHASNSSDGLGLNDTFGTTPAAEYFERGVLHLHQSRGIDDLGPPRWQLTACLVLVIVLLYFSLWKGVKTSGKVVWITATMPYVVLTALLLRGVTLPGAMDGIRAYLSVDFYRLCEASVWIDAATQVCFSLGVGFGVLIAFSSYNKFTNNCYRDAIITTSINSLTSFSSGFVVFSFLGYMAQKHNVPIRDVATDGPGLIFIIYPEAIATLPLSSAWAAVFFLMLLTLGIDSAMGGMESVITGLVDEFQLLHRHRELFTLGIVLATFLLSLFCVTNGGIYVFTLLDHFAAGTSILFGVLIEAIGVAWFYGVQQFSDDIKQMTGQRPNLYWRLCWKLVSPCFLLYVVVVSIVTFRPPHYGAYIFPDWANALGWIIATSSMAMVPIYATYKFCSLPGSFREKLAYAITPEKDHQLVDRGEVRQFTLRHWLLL
Text: as §1

[3] = biological target: T2, NET (Rattus norvegicus, UniProt Q9WTR4); assay: NET competitive binding assay with [3H]nisoxetine, rat brain cortical homogenates; conditions: partially purified rat brain cortical homogenates, 0° C., 4 h, Ki derived from IC50
T2 construct: The protocol employed partially purified rat brain cortical homogenates; from tissue; host or cells: rat brain cortex homogenate
T2 sequence (Q9WTR4 1-597): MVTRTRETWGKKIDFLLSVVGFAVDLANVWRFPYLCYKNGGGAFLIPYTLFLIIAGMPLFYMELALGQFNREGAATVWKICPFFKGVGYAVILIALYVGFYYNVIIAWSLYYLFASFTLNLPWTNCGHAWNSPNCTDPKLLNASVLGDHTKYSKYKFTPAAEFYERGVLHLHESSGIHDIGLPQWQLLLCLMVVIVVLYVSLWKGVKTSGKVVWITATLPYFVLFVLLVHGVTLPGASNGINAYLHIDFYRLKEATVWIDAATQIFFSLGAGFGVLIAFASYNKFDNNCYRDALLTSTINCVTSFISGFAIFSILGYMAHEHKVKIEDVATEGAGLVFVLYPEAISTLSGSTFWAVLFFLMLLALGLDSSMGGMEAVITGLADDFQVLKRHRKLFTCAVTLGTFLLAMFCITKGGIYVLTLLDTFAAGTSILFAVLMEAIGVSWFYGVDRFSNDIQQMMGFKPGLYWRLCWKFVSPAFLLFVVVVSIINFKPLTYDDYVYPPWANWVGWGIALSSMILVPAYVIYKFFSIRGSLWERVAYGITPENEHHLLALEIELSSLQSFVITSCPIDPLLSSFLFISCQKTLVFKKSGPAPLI
Procedure: The protocol employed partially purified rat brain cortical homogenates, [^3H]nisoxetine, incubated 0° C., 4 h; with nonspecific binding determined with added 1 microM of desipramine (DMI) and desipramine as the parallel positive control.

[4] = biological target: 5-HT2A (Homo sapiens, UniProt P28223); assay: 5-HT2A receptor competitive binding, [3H]Ketanserin; conditions: partially purified human protein expressed in CHO cells, nonspecific Mianserin, 30° C., 0.5 h, read-out: Ki of (±)-14, 5-HT2A
Chain of 5-HT2A (P28223 whole entry): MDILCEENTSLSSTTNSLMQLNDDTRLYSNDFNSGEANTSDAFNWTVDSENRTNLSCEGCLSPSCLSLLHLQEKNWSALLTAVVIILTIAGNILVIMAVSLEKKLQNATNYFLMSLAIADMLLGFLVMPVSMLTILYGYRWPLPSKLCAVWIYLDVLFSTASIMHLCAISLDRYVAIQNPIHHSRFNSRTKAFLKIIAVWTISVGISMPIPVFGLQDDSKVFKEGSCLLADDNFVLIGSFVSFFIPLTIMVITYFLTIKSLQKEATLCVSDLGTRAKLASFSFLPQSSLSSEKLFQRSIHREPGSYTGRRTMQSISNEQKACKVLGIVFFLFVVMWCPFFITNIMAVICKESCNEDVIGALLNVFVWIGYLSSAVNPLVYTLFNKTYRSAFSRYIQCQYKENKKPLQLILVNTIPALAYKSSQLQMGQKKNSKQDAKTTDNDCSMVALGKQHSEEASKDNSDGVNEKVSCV
Text: as §1

[5] = biological target: SERT (Rattus norvegicus, UniProt P31652); assay: SERT competitive binding, [3H]Citalopram; conditions: partially purified rat protein, nonspecific Clomipramine, 25° C., 1 h, read-out: Ki of (±)-14, SERT
Chain of SERT (P31652 whole entry): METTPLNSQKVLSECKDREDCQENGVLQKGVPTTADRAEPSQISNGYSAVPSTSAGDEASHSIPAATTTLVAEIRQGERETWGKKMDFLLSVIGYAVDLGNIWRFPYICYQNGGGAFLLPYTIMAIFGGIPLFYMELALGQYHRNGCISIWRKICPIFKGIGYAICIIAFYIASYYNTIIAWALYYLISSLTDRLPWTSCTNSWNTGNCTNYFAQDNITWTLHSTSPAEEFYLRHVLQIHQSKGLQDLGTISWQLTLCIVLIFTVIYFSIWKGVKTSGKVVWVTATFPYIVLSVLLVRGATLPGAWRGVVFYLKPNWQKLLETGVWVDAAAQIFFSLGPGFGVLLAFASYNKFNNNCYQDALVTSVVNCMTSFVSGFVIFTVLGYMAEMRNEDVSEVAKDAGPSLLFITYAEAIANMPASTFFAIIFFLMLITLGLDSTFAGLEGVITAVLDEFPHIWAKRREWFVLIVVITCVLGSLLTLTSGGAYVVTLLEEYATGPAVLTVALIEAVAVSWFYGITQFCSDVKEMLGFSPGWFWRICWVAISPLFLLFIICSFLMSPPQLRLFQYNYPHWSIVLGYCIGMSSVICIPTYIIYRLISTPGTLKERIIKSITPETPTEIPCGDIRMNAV
Text: as §1

Q: Which results are given for COCC1CNCCN1c1nccc2ccccc12 (racemic) [(±)-14, (±)-1-[2′-(Methoxymethyl)piperazin-1′-yl] isoquinoline]?
A: Ki [1]: > 10 µM; Ki [2]: 1.57 µM; Ki [3]: 0.00414 µM; Ki [4]: > 10 µM; Ki [5]: 1.8 µM

Q: FCCCOCC1CNCCN1c1nccc2ccccc12 (racemic) [(±)-37] was tested. Which Ki [3] did it give?
A: 0.0715 µM

Q: Which Ki [3] does the source give for c1ccc(CC2CNCCN2c2nccc3ccccc23)cc1 (racemic) [Compound 9, (±)-1-[2′-(Benzyl)piperazin-1′-yl]isoquinoline] here?
A: 0.0162 µM

Q: With COCC1CNCCN1c1nc(Cl)cc2ccccc12 (racemic) [Compound 17, (±)-3-Chloro-1-[2′-(methoxymethyl)piperazin-1′-yl]isoquinoline] as the compound, how does the Ki [3] read?
A: 0.0142 µM

Q: How did the Ki [3] turn out when FCCCOC[C@@H]1CNCCN1c1nccc2ccccc12 [(S)-37, (S)-1-[2′-[(3-fluoropropoxy)methyl]piperazin-1′-yl]isoquinoline] was run?
A: 0.00671 µM
